The values that follow come from patent publication US20100311714A1, “1H-IMIDAZO[4,5-c]QUINOLINONE COMPOUNDS” (priority 2009, published 2010).

Read-outs that look alike come from different tables or passages of the source.

Data set [1] in a line: Parallel Artificial Membrane Permeability Assay (PAMPA) at pH 6.8. It counts as physicochemical. An outline of the steps:
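Reported as log Pe, membrane permeability was determined by parallel artificial membrane assay at pH 6.8 per Wohnsland–Faller.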

A further data set addresses T1, mTOR (Homo sapiens, UniProt P42345).
T1 construct: purchased Invitrogen Corporation (Carlsbad/Calif., USA) PV4753
Description: Biochemical assay for m-TOR by TR-FRET. An outline of the steps: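 mTOR (0.5 nM) phosphorylates GFP-4EBP1 (400 nM) with 8 μM ATP at rt in 50 mM HEPES pH 7.5, 10 mM MnCl2, 50 mM NaCl, 1 mM EGTA, 1 mM DTT; compounds 0.003–10 μM final. EDTA stop with Tb-anti-p4EBP1[pT46] antibody (0.5 nM); TR-FRET read after 15 min against no-enzyme and vehicle controls.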
A general note: Time-resolved FRET reads energy transfer from a long-lived donor to a nearby acceptor.

The subject of data set [2] is PKB Ser473 phosphorylation in Rat1-myr-HA-p110 delta cells. The data set can be described thus: Reverse protein array, PKB Ser473 phosphorylation in Rat1-myr-HA-p110 delta cells. Type of data set: cell-based. As to conditions: Rattus norvegicus, 0.5 h, 30 minutes compound incubation, read-out: p-PKB/IC50_delta.

T1 sequence (P42345 1360-2549 limits assumed): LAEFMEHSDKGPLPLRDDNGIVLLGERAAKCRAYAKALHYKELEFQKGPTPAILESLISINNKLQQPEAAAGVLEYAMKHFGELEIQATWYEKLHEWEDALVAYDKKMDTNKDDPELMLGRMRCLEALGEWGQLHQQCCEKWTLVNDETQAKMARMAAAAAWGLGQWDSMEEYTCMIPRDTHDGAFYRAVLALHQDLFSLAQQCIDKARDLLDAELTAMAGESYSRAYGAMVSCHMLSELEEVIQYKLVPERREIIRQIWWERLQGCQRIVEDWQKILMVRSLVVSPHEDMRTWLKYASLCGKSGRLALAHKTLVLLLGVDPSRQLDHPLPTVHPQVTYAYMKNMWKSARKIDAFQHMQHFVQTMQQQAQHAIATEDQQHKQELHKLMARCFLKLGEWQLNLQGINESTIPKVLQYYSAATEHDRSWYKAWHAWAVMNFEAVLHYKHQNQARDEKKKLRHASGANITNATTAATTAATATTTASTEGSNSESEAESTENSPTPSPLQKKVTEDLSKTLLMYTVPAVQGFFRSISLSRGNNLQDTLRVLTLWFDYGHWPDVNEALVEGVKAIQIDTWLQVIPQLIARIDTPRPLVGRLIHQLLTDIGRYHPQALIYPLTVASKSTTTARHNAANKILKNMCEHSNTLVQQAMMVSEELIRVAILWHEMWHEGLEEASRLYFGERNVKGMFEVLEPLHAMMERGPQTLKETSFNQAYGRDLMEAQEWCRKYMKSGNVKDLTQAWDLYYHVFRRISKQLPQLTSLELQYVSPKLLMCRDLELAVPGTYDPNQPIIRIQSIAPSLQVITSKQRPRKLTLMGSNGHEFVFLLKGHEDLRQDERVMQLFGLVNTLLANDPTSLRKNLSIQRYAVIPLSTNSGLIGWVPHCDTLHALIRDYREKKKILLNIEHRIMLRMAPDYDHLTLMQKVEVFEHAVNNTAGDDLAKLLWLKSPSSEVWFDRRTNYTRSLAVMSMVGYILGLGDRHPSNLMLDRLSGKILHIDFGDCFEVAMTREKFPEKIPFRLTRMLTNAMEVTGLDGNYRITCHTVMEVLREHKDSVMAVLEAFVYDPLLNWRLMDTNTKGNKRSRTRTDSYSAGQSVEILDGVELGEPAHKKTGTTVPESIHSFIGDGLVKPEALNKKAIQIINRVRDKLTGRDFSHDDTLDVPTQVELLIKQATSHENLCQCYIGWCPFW

As for `CNc1ccc(-c2ccc3ncc4c(c3c2)n(-c2ccc(F)nc2C)c(=O)n4C)cn1` [Example 7.4, 1-(6-Fluoro-2-methyl-pyridin-3-yl)-3-methyl-8-(6-methylamino-pyridin-3-yl)-1,3-dihydro-imidazo[4,5-c]quinolin-2-one], the “HT-perm/logPe pH6.8” value in data set [1] is listed as −4.3. The IC50 at mTOR (read-out: mTOR/IC50) worked out at 8 nM; in data set [2] it was 19.3 nM.

Turning to `CCOc1cc(-c2ccc3ncc4c(c3c2)n(-c2ccc(F)nc2C)c(=O)n4C)cnc1COC` [Example 7.5, 8-(5-Ethoxy-6-methoxymethyl-pyridin-3-yl)-1-(6-fluoro-2-methyl-pyridin-3-yl)-3-methyl-1,3-dihydro-imidazo[4,5-c]quinolin-2-one], the “HT-Perm logPe pH6.8” value in data set [1] was −3.7. The IC50 was found to be 88 nM at mTOR (read-out: EPK_mTOR/IC50) and 182 nM in data set [2].

For `Cc1nc(F)ccc1-n1c(=O)n(C)c2cnc3ccc(-c4cncc(C(C)(C)O)c4)cc3c21` [Example 7.8, 1-(6-Fluoro-2-methyl-pyridin-3-yl)-8-[5-(1-hydroxy-1-methyl-ethyl)-pyridin-3-yl]-3-methyl-1,3-dihydro-imidazo[4,5-c]quinolin-2-one], in data set [1], the “HT-Perm logPe pH6.8” value is given as −5.5. In addition, the IC50 at mTOR (read-out: EPK_mTOR/IC50) came to 86 nM; in data set [2], 80.8 nM.

On to `Cc1nc(N2CCN(C)C(=O)C2)ccc1-n1c(=O)n(C)c2cnc3ccc(-c4cnc(N)c(C(F)(F)F)c4)cc3c21` [Example 21.1, 8-(6-Amino-5-trifluoromethyl-pyridin-3-yl)-3-methyl-1-[2-methyl-6-(4-methyl-3-oxo-piperazin-1-yl)-pyridin-3-yl]-1,3-dihydro-imidazo[4,5-c]quinolin-2-one], for which the “HT-Perm logPe pH6.8” value in data set [1] was −6.1. The IC50 at mTOR (read-out: EPK_mTOR/IC50) is less than 3 nM; in data set [2], 10.3 nM.

For `CCOc1cc(-c2ccc3ncc4c(c3c2)n(-c2ccc(OCCOC)nc2C)c(=O)n4C)cnc1COC` [Example 22.1, 8-(5-Ethoxy-6-methoxymethyl-pyridin-3-yl)-1-[6-(2-methoxy-ethoxy)-2-methyl-pyridin-3-yl]-3-methyl-1,3-dihydro-imidazo[4,5-c]quinolin-2-one], the “HT-Perm logPe pH6.8” value in data set [1] is −3.8. Also, the IC50 at mTOR (read-out: EPK_mTOR/IC50) came to 98 nM; in data set [2], 207 nM.

On to `COCc1ncc(-c2ccc3ncc4c(c3c2)n(-c2ccc(N3CCC3)nc2C)c(=O)n4C)cc1OC(C)C` [Example 23.2, 1-(6-Azetidin-1-yl-2-methyl-pyridin-3-yl)-8-(5-isopropoxy-6-methoxymethyl-pyridin-3-yl)-3-methyl-1,3-dihydro-imidazo[4,5-c]quinolin-2-one], for which the “HT-Perm logPe pH6.8” value in data set [1] is recorded as −3.7. The figures for the IC50 (at mTOR (read-out: EPK_mTOR/IC50); in data set [2]) were 44 nM and 123 nM, respectively.

Regarding `Cc1nc(N2CCC2)ccc1-n1c(=O)n(C)c2cnc3ccc(-c4cncc(C(C)(C)O)c4)cc3c21` [Example 23.3, 1-(6-Azetidin-1-yl-2-methyl-pyridin-3-yl)-8-[5-(1-hydroxy-1-methyl-ethyl)-pyridin-3-yl]-3-methyl-1,3-dihydro-imidazo[4,5-c]quinolin-2-one], the “HT-Perm logPe pH6.8” value in data set [1] is −5. The IC50 on mTOR (read-out: EPK_mTOR/IC50) was 7 nM; in data set [2] it was 42.2 nM.

Regarding `CCOc1cc(-c2ccc3ncc4c(c3c2)n(-c2ccc(N3CCC3)nc2C)c(=O)n4C)cnc1COC` [Example 23.5, 1-(6-Azetidin-1-yl-2-methyl-pyridin-3-yl)-8-(5-ethoxy-6-methoxymethyl-pyridin-3-yl)-3-methyl-1,3-dihydro-imidazo[4,5-c]quinolin-2-one], the “HT-Perm logPe pH6.8” value in data set [1] was −3.8. Also, the figures for the IC50 (on mTOR (read-out: EPK_mTOR/IC50); in data set [2]) were 25 nM and 155 nM, respectively.

As to `COCc1ncc(-c2ccc3ncc4c(c3c2)n(-c2ccc(N3CCC3)nc2C)c(=O)n4C)cc1OC` [Example 23.6, 1-(6-Azetidin-1-yl-2-methyl-pyridin-3-yl)-8-(5-methoxy-6-methoxymethyl-pyridin-3-yl)-3-methyl-1,3-dihydro-imidazo[4,5-c]quinolin-2-one], the “HT-Perm logPe pH6.8” value in data set [1] is −4.2. For the same molecule, the figures for the IC50 (on mTOR (read-out: EPK_mTOR/IC50); in data set [2]) were 137 nM and 216 nM, respectively.

Regarding `CCNc1cc(-c2ccc3ncc4c(c3c2)n(-c2ccc(N3CCC3)nc2C)c(=O)n4C)cnc1CO` [Example 23.8, 1-(6-Azetidin-1-yl-2-methyl-pyridin-3-yl)-8-(5-ethylamino-6-hydroxymethyl-pyridin-3-yl)-3-methyl-1,3-dihydro-imidazo[4,5-c]quinolin-2-one], the “HT-Perm logPe pH6.8” value in data set [1] is on record as −5.7. Also, the IC50 on mTOR (read-out: EPK_mTOR/IC50) was 4 nM; in data set [2], 10.2 nM.

Take `Cc1nc(N2CCC2)ccc1-n1c(=O)n(C)c2cnc3ccc(-c4cncc(OC(C)C)c4)cc3c21` [Example 23.9, 1-(6-Azetidin-1-yl-2-methyl-pyridin-3-yl)-8-(5-isopropoxy-pyridin-3-yl)-3-methyl-1,3-dihydro-imidazo[4,5-c]quinolin-2-one]: in data set [1], the “HT-Perm logPe pH6.8” value is listed as −3.7. Also, the IC50 at mTOR (read-out: EPK_mTOR/IC50) amounted to 37 nM; in data set [2], 80.1 nM.

As to `CNc1ncc(-c2ccc3ncc4c(c3c2)n(-c2ccc(N3CC(F)(F)C3)nc2C)c(=O)n4C)cn1` [Example 24.1, 1-[6-(3,3-Difluoro-azetidin-1-yl)-2-methyl-pyridin-3-yl]-3-methyl-8-(2-methylamino-pyrimidin-5-yl)-1,3-dihydro-imidazo[4,5-c]quinolin-2-one], the “HT-Perm logPe pH6.8” value in data set [1] is given as −3.9. Besides, the IC50 on mTOR (read-out: EPK_mTOR/IC50) was 21 nM; in data set [2], 42.6 nM.

In the case of `CCOc1cc(-c2ccc3ncc4c(c3c2)n(-c2ccc(N3CCCC3)nc2C)c(=O)n4C)cnc1COC` [Example 25.2, 8-(5-Ethoxy-6-methoxymethyl-pyridin-3-yl)-3-methyl-1-(2-methyl-6-pyrrolidin-1-yl-pyridin-3-yl)-1,3-dihydro-imidazo[4,5-c]quinolin-2-one], the “HT-Perm logPe pH6.8” value in data set [1] is on record as −3.9. In addition, the values for the IC50 (at mTOR (read-out: EPK_mTOR/IC50); in data set [2]) were 76 nM and 124 nM, respectively.

For the molecule `Cc1nc(N2CCCC2)ccc1-n1c(=O)n(C)c2cnc3ccc(-c4cncc(C(C)(C)O)c4)cc3c21` [Example 25.3, 8-[5-(1-Hydroxy-1-methyl-ethyl)-pyridin-3-yl]-3-methyl-1-(2-methyl-6-pyrrolidin-1-yl-pyridin-3-yl)-1,3-dihydro-imidazo[4,5-c]quinolin-2-one], the “HT-Perm logPe pH6.8” value in data set [1] is on record as −4.5. Moreover, the IC50 at mTOR (read-out: EPK_mTOR/IC50) was found to be 12 nM; in data set [2], 25.4 nM.

Turning to `Cc1nc(N(C)CCO)ccc1-n1c(=O)n(C)c2cnc3ccc(-c4cnc(N)c(C(F)(F)F)c4)cc3c21` [Example 26.1, 8-(6-Amino-5-trifluoromethyl-pyridin-3-yl)-1-{6-[(2-hydroxy-ethyl)-methyl-amino]-2-methyl-pyridin-3-yl}-3-methyl-1,3-dihydro-imidazo[4,5-c]quinolin-2-one], the “HT-Perm logPe pH6.8” value in data set [1] is on record as −4.2. For the same molecule, the values for the IC50 (at mTOR (read-out: EPK_mTOR/IC50); in data set [2]) were less than 6 nM and less than 4.57 nM, respectively.

As to `CNc1ncc(-c2ccc3ncc4c(c3c2)n(-c2ccc(N(C)CCO)nc2C)c(=O)n4C)cn1` [Example 26.2, 1-{6-[(2-Hydroxy-ethyl)-methyl-amino]-2-methyl-pyridin-3-yl}-3-methyl-8-(2-methylamino-pyrimidin-5-yl)-1,3-dihydro-imidazo[4,5-c]quinolin-2-one], in data set [1], the “HT-Perm logPe pH6.8” value is recorded as −4.9. Further, the IC50 on mTOR (read-out: EPK_mTOR/IC50) came out at 3 nM; in data set [2] it was 10.4 nM.
